Test results reported in patent publication US20160243237A1, “EMULSIONS OF PERFLUOROCARBONS” (TENAX THERAPEUTICS, INC., priority 2009, published 2016).
Entries after “also recorded” stand apart in the source; their conditions may differ.

Legend:
[1] = Physical properties of perfluoro(tert-butylcyclohexane); assay type: physicochemical
Text: Physical properties of perfluoro(tert-butylcyclohexane) are as follows: […]

[2] = Gas carrying capacity (oxygen, CO2); assay type: physicochemical; conditions: at body temperature
Experimental: Perfluoro(tert-butylcyclohexane) can carry about 43 mL of oxygen per 100 mL of PFC, and 196 mL of CO2 per 100 mL of PFC at body temperature.
FtBu can dissolve and release large amounts of gases, including the blood gases oxygen and carbon dioxide. […] As such, no sinusoidal release curve of oxygen is encountered. The transport and release of oxygen and other gases by FtBu is a simple passive process, the quantity of gas dissolved is linearly related to its partial pressure, essentially following Henry's Law.
In the body the PFC emulsion is capable of uploading and unloading oxygen and CO2 more efficiently than blood, (at a FtBu concentration of 60% w/v, Oxycyte® can dissolve 3-4 times the amount of oxygen than human hemoglobin can off-load under normal physiological conditions) and this process is concentration-gradient mediated (Henry's Law). Because the median size of the PFC droplets is approximately 40-50 times smaller than an erythrocyte, Oxycyte® is able to oxygenate tissues with narrowed capillaries, as occurs in brain contusions. After about 10 hours, half of an intravenous dose of 3 mL/kg remains in the circulation. PFCs are eliminated from the blood when macrophages scavenge the lipid particles. This is quite similar to how Intralipid® is transported from the blood stream. PFCs are deposited in the liver and spleen. […]

[3] = Solubility of FtBu in water and solvents; assay type: physicochemical; conditions: room temperature
Text: FtBu is most soluble in halogenated solvents such as isoflurane. Therefore, FtBu needs to be formulated as an aqueous emulsion for intravenous administration.

monkeys = experiment: Single-dose GLP toxicity study, pulmonary hyperinflation; assay type: in vivo; conditions: 60% and 20% w/v, compared with PFOB
Text: (§1) Perfluoro(tert-butylcyclohexane) at both 60% and 20% w/v concentrations has been tested in controlled, single-dose Good Laboratory Practice (GLP) toxicity studies in rats and monkeys. […] Nevertheless, perfluoro(tert-butylcyclohexane) represents a better balance between persistence and the tendency to produce hyperinflated, non-collapsible lungs than what is seen with PFOB and perfluorodecalin.

rats and monkeys = experiment: Single-dose GLP toxicity studies, absorption and persistence; assay type: in vivo
Text: as §1

skin tissue = experiment: Measuring oxygen tension in tissue with fluorescent marker (Example 3); assay type: in vivo; conditions: skin area treated with PFC
Experimental: A material which binds oxygen (fluorescent marker) is injected into skin tissue. The combination is fluorescent and the more oxygen that is present, the stronger the fluorescent signal. (representing the oxygen tension in the tissue). First it is determined that fluorescence chemistry is unaffected by the PFCs and poloxamers. Then as a control, the fluorescent marker is injected into the skin, and oxygen tension is obtained. Finally, the same area is treated with a PFC, PFC emulsion or a PFC gel and oxygen tension is again obtained.

[4] = Mechanical stability of the emulsion with tonicity adjusters; assay type: physicochemical; conditions: tonicity adjuster compared with sodium chloride
Text: Glycerin USP is used in the formulation to adjust the tonicity of the emulsion. For intravenous infusion, it is important that the tonicity of the emulsion be in the same physiological range as blood tonicity. Glycerin was chosen because it has a long history of use in parenteral emulsions and because it is not an ionizable species that could contribute to coalescence of the emulsion particles by disruption of the charged layer (zeta potential) surrounding the particles.

SMILES	Density [1]	Kinematic Viscosity [1]	Vapor Pressure @ 25° C. ([1]; 25° C.)	Vapor Pressure @ 37° C. ([1]; 37° C.)	CO2 carried [2]	oxygen carried [2]	solubility in 2,2,4-trimethylpentane(isooctane) [3]	solubility in halogenated solvents such as isoflurane [3]	solubility in water [3]	degree of pulmonary hyperinflation (monkeys)	persistence in liver and spleen (RES half-life) (rats and monkeys; compared with PFOB)	absorption in the body (rats and monkeys; single dose)	local oxygen tension in the tissue (skin tissue)	mechanical stability of the emulsion [4]
FC(F)(F)C(C(F)(F)F)(C(F)(F)F)C1(F)C(F)(F)C(F)(F)C(F)(F)C(F)(F)C1(F)F [perfluoro(tert-butylcyclohexane), 1-(1,1-bis(trifluoromethyl)-2,2,2-trifluoroethyl)-1,2,2,3,3,4,4,5,5,6,6-undecafluorocyclohexane]	1.97 g/mL	5.378 cP	3.8 mmHg	4.4 mmHg	~196 mL of CO2 per 100 mL of PFC	about 43 mL of oxygen per 100 mL of PFC	only minimal solubility	most soluble	virtually insoluble in water	significantly less than that seen in monkeys treated with PFOB; also recorded: correspondingly lesser propensity to cause pulmonary hyperinflation	somewhat longer than what has been reported for PFOB; also recorded: somewhat longer than that of the benchmark perfluorocarbon, PFOB	generally comparable to what has been reported for other PFCs	substantially increases local oxygen tension	–
OCC(O)CO [glycerin, Glycerin]	–	–	–	–	–	–	–	–	–	–	–	–	–	superior to sodium chloride
OC[C@@H](O)[C@@H](O)[C@H](O)[C@H](O)CO [mannitol]	–	–	–	–	–	–	–	–	–	–	–	–	–	superior to sodium chloride
